Data taken from article PMC4774911, “Biochemical Screening of Five Protein Kinases from Plasmodium falciparum against 14,000 Cell-Active Compounds” (PLoS ONE, 2016).
Several values for one entry are separate records, joined by “and”; a condition that tells them apart may be missing. Equal entries are not always repeated.

Experiments:
Experiment in all cases: biochemical
PRKACB = PRKACB (Homo sapiens, UniProt P22694)
STK10 = STK10 (Homo sapiens, UniProt O94804)
MAPK3 = MAPK3 (Homo sapiens, UniProt P27361)
PRKD3 = target: T1, PRKD3 (Homo sapiens, UniProt O94806)
T1 sequence (O94806 1-890): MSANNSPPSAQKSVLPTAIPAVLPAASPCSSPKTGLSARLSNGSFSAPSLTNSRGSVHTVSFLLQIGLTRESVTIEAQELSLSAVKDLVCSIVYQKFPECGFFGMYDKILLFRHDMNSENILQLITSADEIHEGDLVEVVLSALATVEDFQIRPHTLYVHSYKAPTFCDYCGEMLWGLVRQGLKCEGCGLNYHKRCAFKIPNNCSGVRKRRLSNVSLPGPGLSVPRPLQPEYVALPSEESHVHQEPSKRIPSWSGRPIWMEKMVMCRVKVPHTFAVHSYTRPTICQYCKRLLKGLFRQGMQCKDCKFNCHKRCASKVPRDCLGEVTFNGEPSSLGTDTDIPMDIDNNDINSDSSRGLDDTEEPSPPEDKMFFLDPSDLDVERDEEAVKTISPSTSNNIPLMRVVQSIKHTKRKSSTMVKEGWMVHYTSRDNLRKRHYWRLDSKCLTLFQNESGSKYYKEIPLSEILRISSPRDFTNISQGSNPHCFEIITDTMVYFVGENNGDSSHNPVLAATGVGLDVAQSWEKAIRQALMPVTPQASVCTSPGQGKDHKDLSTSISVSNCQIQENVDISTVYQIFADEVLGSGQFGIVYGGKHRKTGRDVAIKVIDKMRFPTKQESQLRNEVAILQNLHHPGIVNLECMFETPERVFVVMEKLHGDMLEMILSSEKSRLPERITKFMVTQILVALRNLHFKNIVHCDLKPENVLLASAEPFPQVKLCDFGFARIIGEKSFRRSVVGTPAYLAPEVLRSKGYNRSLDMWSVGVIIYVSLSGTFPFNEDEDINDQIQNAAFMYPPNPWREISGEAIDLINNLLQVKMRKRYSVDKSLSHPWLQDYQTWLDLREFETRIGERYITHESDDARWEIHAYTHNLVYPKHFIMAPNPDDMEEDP

CIT = CIT (Homo sapiens, UniProt O14578)
CABC1 = CABC1 (Homo sapiens, UniProt Q8NI60)
STRADA = target: T2, STRADA (Homo sapiens, UniProt Q7RTN6)
T2 sequence (Q7RTN6 1-431): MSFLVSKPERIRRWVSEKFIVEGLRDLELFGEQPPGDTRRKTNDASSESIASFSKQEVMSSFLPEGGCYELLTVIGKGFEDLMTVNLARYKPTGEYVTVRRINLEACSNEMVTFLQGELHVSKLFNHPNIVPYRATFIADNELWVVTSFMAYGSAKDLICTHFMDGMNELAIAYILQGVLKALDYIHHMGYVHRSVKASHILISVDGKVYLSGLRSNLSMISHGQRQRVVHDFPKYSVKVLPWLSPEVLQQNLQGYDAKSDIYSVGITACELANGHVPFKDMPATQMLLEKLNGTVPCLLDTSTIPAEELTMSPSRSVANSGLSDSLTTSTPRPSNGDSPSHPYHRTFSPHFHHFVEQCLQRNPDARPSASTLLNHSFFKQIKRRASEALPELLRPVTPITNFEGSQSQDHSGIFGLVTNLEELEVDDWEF

RPS6KA5 = RPS6KA5 (Homo sapiens, UniProt O75582)
NEK2 = target: T3, NEK2 (Homo sapiens, UniProt P51955)
T3 sequence (P51955 1-445): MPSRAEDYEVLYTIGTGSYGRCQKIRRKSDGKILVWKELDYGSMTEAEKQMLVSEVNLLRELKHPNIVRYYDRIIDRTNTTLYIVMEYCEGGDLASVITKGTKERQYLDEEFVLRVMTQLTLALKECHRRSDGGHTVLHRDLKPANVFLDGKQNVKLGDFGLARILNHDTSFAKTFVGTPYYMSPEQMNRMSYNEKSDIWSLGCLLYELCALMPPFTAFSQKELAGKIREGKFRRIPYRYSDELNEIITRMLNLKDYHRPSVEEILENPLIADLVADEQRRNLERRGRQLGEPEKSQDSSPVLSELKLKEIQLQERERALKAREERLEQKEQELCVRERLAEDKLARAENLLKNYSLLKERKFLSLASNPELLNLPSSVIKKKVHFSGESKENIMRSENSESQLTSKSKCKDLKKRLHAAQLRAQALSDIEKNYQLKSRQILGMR

EIF2AK4 = EIF2AK4 (Homo sapiens, UniProt Q9P2K8)
CHEK2 = CHEK2 (Homo sapiens, UniProt O96017)
MAP2K1 = MAP2K1 (Homo sapiens, UniProt Q02750)
IRAK4 = target: T4, IRAK4 (Homo sapiens, UniProt Q9NWZ3)
T4 sequence (Q9NWZ3 1-460): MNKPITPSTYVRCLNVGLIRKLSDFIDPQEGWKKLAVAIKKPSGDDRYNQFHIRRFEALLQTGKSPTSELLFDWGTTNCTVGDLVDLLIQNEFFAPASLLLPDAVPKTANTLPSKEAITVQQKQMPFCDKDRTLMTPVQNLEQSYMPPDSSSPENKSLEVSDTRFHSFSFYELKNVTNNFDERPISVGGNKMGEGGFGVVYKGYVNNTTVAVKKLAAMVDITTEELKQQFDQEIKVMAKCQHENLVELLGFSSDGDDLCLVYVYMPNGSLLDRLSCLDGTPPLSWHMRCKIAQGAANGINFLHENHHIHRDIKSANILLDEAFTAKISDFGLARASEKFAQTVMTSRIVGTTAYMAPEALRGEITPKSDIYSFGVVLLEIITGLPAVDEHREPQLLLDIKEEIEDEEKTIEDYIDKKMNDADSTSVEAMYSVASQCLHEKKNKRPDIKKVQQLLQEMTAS

Sequence of CHEK2 (O96017 whole entry): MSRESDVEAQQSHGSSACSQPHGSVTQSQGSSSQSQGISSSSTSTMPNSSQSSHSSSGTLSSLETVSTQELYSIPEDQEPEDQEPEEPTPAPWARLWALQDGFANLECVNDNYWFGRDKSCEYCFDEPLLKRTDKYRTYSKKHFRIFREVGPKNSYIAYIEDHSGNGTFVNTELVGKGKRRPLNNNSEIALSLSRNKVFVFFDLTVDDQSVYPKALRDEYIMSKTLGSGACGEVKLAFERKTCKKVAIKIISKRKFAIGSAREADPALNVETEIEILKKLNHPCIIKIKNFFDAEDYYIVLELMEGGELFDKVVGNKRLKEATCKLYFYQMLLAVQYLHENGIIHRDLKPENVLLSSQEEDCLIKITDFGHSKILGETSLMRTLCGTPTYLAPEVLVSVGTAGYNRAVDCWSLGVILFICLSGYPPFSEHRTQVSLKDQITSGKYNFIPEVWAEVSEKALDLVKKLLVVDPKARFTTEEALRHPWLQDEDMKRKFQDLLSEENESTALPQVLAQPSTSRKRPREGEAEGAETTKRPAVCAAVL
Sequence of MAPK3 (P27361 whole entry): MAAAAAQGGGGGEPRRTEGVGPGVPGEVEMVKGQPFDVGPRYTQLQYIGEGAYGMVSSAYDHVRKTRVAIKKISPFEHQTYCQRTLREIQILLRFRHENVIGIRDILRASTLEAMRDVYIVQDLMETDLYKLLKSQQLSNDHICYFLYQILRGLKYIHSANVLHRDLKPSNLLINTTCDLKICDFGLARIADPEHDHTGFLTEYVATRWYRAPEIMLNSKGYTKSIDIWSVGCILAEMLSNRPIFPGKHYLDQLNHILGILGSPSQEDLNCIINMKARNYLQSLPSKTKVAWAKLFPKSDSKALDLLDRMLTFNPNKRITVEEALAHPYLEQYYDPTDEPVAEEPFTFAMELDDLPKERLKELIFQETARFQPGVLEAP
Sequence of STK10 (O94804 whole entry): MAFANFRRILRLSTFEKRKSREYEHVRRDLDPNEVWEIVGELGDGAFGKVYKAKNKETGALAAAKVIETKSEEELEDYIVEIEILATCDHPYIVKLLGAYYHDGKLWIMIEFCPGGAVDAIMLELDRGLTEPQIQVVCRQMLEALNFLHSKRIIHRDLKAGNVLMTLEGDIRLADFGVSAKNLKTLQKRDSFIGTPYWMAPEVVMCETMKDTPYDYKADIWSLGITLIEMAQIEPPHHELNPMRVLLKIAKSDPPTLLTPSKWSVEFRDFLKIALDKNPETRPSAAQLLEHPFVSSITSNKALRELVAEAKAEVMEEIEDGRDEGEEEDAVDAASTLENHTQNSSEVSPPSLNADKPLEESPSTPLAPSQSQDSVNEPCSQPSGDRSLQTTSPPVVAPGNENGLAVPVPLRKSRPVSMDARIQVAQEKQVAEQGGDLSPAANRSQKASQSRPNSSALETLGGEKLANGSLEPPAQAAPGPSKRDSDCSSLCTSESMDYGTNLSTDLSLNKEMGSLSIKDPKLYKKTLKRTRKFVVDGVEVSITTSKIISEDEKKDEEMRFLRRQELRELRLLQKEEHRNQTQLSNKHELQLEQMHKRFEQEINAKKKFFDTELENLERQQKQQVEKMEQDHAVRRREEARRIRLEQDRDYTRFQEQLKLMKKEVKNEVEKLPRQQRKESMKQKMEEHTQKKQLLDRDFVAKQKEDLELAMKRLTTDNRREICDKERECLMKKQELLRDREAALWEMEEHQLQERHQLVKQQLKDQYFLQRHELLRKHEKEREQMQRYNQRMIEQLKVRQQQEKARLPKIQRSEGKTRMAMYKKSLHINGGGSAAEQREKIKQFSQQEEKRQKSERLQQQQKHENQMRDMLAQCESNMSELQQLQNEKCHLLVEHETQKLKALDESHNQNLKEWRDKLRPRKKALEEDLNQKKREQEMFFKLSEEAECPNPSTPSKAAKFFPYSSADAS
Sequence of CIT (O14578 whole entry): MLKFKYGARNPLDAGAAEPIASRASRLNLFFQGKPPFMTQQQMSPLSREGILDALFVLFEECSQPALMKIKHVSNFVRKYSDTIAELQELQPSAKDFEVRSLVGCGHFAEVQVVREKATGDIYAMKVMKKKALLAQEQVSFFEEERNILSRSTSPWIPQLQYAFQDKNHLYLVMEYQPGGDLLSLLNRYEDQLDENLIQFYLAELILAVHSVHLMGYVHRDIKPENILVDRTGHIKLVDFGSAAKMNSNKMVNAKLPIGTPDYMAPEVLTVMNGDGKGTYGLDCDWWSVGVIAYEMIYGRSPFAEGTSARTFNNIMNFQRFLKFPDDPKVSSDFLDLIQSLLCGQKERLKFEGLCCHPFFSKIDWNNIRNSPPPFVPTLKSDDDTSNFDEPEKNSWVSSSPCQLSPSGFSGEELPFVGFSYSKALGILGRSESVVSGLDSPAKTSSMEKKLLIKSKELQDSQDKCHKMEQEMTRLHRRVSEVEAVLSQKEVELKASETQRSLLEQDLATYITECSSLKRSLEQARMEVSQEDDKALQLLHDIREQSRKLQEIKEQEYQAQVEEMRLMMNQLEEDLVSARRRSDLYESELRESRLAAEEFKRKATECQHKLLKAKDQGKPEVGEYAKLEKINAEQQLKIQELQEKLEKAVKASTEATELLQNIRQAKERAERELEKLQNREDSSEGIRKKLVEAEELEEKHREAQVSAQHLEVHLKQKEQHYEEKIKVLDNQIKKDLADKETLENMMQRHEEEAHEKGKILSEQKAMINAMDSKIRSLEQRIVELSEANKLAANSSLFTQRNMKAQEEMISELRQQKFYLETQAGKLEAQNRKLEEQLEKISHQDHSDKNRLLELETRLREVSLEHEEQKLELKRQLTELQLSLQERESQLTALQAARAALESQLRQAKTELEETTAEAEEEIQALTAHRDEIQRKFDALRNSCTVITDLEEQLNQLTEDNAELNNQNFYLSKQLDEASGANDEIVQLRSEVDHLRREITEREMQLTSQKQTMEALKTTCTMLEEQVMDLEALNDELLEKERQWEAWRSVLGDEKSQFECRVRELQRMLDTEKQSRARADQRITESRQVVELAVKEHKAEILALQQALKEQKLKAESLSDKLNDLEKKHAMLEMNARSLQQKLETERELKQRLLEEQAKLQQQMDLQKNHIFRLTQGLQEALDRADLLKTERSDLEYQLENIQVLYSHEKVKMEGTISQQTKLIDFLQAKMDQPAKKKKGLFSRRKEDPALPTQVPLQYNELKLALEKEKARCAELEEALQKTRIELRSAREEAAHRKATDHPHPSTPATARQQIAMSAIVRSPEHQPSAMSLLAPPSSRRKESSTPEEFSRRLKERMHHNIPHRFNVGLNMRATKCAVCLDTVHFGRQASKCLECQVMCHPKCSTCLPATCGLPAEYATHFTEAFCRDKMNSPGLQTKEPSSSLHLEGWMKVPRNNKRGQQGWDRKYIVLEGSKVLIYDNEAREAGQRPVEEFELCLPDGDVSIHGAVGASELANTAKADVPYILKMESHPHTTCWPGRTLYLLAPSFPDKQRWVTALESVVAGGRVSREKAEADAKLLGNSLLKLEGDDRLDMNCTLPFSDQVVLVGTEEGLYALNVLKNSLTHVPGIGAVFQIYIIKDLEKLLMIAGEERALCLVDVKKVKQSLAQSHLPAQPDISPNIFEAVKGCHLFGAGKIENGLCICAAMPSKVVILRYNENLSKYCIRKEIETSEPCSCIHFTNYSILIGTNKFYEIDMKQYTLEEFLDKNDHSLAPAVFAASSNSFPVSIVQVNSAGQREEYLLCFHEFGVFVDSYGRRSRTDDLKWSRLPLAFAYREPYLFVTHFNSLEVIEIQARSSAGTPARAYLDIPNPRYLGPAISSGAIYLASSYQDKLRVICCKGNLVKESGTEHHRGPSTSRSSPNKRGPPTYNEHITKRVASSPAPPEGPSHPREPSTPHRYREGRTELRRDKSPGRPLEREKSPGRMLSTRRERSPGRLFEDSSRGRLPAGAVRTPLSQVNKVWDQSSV
Sequence of CABC1 (Q8NI60 whole entry): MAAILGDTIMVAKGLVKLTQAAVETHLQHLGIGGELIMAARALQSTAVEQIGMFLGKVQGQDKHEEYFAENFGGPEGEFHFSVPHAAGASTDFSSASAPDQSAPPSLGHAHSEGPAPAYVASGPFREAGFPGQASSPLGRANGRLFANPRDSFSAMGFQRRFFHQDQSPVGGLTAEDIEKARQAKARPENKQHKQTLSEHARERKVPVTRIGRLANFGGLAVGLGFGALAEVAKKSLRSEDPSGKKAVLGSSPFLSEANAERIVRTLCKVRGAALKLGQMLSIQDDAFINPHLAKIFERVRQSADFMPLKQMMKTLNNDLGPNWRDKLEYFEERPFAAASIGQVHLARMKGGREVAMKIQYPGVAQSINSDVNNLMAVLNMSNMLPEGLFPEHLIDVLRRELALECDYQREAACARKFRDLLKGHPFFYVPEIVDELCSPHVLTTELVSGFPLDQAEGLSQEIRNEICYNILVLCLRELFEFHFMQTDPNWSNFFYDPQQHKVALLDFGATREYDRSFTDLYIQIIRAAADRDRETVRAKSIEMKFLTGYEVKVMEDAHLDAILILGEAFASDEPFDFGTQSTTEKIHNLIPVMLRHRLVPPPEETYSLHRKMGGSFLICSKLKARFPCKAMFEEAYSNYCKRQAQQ
Sequence of MAP2K1 (Q02750 whole entry): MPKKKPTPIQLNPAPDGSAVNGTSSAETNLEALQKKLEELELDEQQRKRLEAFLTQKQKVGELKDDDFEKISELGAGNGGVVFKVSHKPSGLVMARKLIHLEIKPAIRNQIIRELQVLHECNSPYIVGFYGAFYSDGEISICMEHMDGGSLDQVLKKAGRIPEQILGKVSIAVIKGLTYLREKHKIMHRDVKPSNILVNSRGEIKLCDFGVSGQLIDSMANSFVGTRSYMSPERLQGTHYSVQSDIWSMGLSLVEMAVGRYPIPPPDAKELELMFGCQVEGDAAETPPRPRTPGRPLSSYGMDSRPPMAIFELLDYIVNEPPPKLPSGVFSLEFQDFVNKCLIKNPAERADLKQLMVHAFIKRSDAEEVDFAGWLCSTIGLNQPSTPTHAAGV

Structure (SMILES) | IC50 (PRKACB) | IC50 (STK10) | IC50 (MAPK3) | IC50 (PRKD3) | IC50 (CIT) | IC50 (CABC1) | IC50 (STRADA) | IC50 (RPS6KA5) | IC50 (NEK2) | IC50 (EIF2AK4) | IC50 (CHEK2) | IC50 (MAP2K1) | IC50 (IRAK4)
CN1CCN(c2ccc(Nc3ncc(C#N)c(Nc4ccccc4C(N)=O)n3)cc2)CC1.Cl [TCMDC-134116] | 6.3 µM | 0.048 µM and 0.093 µM | > 20 µM | 0.37 µM | 5.7 µM and 5.8 µM | > 20 µM | > 20 µM | 0.5 µM and 0.75 µM | 0.57 µM and 0.25 µM | 0.24 µM and 0.21 µM | 0.17 µM | 1.8 µM and 1.6 µM | 0.17 µM
Cl.NCC1(c2nc(-c3ccc(Cl)c(O)c3)c(-c3ccncc3)[nH]2)CCCCC1 [TCMDC-141154] | 0.89 µM | 0.057 µM | > 20 µM | 8.7 µM | 0.16 µM and 0.28 µM | > 20 µM | > 20 µM | > 20 µM | > 20 µM | > 20 µM | > 20 µM | 9.7 µM and > 20 µM | > 20 µM
CN(C)CC(O)COc1ccc(Nc2ncc([N+](=O)[O-])c(Nc3ccccc3O)n2)cc1.O=C(O)C(F)(F)F (stereo not drawn) [TCMDC-141399] | > 20 µM | 6.3 µM | > 20 µM | 9.1 µM and 7.6 µM | 4.4 µM | > 20 µM | > 20 µM | > 20 µM | 6.5 µM and 4.2 µM | 0.26 µM and 0.35 µM | 11 µM | > 20 µM | > 20 µM
